Measurements as given in the supplement of paper PMC10307832.

Assays:
Experiment in all cases: relative viability (nuclei count vs DMSO), 5 days (fraction); higher = more cells survive
TGX 221 + Decitabine = compound: CC1=CN2C(=O)C=C(N=C2C(=C1)C(C)NC3=CC=CC=C3)N4CCOCC4 [TGX 221] + Nc1ncn([C@H]2C[C@H](O)[C@@H](CO)O2)c(=O)n1 [Decitabine] (partner 2 µM)
Summary of the method: (§1)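 The day after seeding in 1536-well plates, lung cancer cell lines were treated by pin tool with a single drug, or with a fixed anchor-drug dose together with five library-drug doses (not always all listed) in √10 steps. After 5 days, a combined fix-and-stain solution (final 0.05% Triton X-100, 1% formaldehyde, 1 ug/ml Hoechst) was added. Nuclei counted on 4× images gave relative viability as treated counts over vehicle counts, reported as the median of duplicate plates.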

[1] = compound: C1=CC=C(C(=C1)C2=CC=C(C=C2)C3=CSC4=C3C(=C(C(=O)N4)C#N)O)O + CC(C)C[C@H](NC(=O)[C@H](Cc1ccccc1)NC(=O)c1cnccn1)B(O)O [Bortezomib] (partner 0.002 µM)
Summary of the method: as §1

[2] = compound: O=C(CCCCCCNC(=O)c1cnc(N(c2ccccc2)c2ccccc2)nc1)NO [Ricolinostat] + CCNC(=O)c1noc(-c2cc(C(C)C)c(O)cc2O)c1-c1ccc(CN2CCOCC2)cc1 [Luminespib] (partner 0.01 µM)
Summary of the method: as §1

[3] = compound: C1=CC=C(C(=C1)C2=CC=C(C=C2)C3=CSC4=C3C(=C(C(=O)N4)C#N)O)O + C[C@@H](Oc1cc(-c2cnn(C3CCNCC3)c2)cnc1N)c1c(Cl)ccc(F)c1Cl [Crizotinib] (partner 1 µM)
Summary of the method: as §1

Row | Cell Line | relative viability (TGX 221 + Decitabine; first compound 0.08 µM) | relative viability (TGX 221 + Decitabine; first compound 0.253 µM) | relative viability (TGX 221 + Decitabine; first compound 0.8 µM) | relative viability (TGX 221 + Decitabine; first compound 2.53 µM) | relative viability (TGX 221 + Decitabine; first compound 8 µM) | relative viability ([1]; first compound 0.08 µM) | relative viability ([1]; first compound 0.253 µM) | relative viability ([1]; first compound 0.8 µM) | relative viability ([1]; first compound 2.53 µM) | relative viability ([1]; first compound 8 µM) | relative viability ([2]; first compound 0.08 µM) | relative viability ([2]; first compound 0.253 µM) | relative viability ([2]; first compound 0.8 µM) | relative viability ([2]; first compound 2.53 µM) | relative viability ([3]; first compound 0.08 µM) | relative viability ([3]; first compound 0.253 µM) | relative viability ([3]; first compound 0.8 µM) | relative viability ([3]; first compound 2.53 µM) | relative viability ([3]; first compound 8 µM)
1 | ABC-1 | 1.06 | 1.26 | 1 | 1.07 | 0.923 | 0.281 | 0.326 | 0.326 | 0.364 | 0.324 | 0.537 | 0.761 | 0.527 | 0.261 | 0.743 | 1.55 | 1.05 | 0.928 | 1
2 | BEN | 0.679 | 0.669 | 0.667 | 0.715 | 0.715 | 0.578 | 0.789 | 0.944 | 0.892 | 0.676 | 0.228 | 0.371 | 0.402 | 0.326 | 0.771 | 0.948 | 0.886 | 1.02 | 0.776
3 | COR-L23 | 0.445 | 0.402 | 0.483 | 0.487 | 0.489 | 0.864 | 0.703 | 1.11 | 1.09 | 0.496 | 0.518 | 0.571 | 0.661 | 0.427 | 0.577 | 0.89 | 0.772 | 0.644 | 0.533
4 | COR-L 105 | 0.651 | 0.609 | 0.628 | 0.649 | 0.596 | 0.767 | 0.78 | 0.819 | 0.779 | 0.58 | – | 0.746 | 0.765 | 0.749 | 0.712 | 1.04 | 0.646 | 0.778 | 0.646
5 | ChaGo-K-1 | 0.485 | 0.519 | 0.563 | 0.544 | 0.548 | 0.658 | 0.955 | 0.957 | 1.21 | 0.954 | 0.679 | 0.633 | 0.561 | 0.577 | 1.06 | 1.43 | 1.31 | 1.17 | 0.817
6 | EKVX | 0.346 | 0.313 | 0.345 | 0.367 | 0.307 | 0.879 | 0.998 | 1.03 | 1.02 | 0.917 | 0.74 | 0.783 | – | 0.902 | 0.947 | 1.06 | 0.824 | 1.36 | 0.803
7 | EMC-BAC-2 | 0.961 | 0.886 | 0.947 | 1.05 | 0.85 | 0.995 | 1.25 | 1.15 | 1.05 | 0.957 | 1.05 | 1.14 | 1.12 | 1.11 | 0.741 | 0.824 | 0.632 | 0.821 | 0.644
8 | EPLC-272H | 0.352 | 0.349 | 0.316 | 0.343 | 0.332 | – | 0.973 | 0.852 | 0.858 | 0.652 | 0.159 | 0.266 | 0.292 | 0.161 | – | 1.04 | 0.839 | 0.891 | 0.796
9 | H3255 | 0.54 | 0.595 | 0.53 | 0.58 | 0.553 | 0.79 | 0.802 | 0.646 | 0.789 | 0.686 | 0.534 | 0.881 | 0.833 | 0.704 | 0.806 | 1.01 | 0.723 | 0.873 | 0.815
10 | HARA | 0.604 | 0.488 | 0.529 | 0.504 | 0.433 | – | – | 1.25 | 1.03 | 1.13 | 0.787 | 0.606 | 0.478 | 0.349 | – | 1.51 | 1.1 | 1.05 | 0.842
11 | HCC-15 | 0.699 | 0.648 | 0.636 | 0.591 | 0.709 | 0.816 | 1.14 | 1.02 | 1.16 | 1.14 | 0.3 | 0.28 | 0.382 | 0.497 | 0.696 | 0.885 | 0.855 | 0.886 | 0.692
12 | HCC-44 | 0.921 | 0.957 | 1.03 | 1.04 | 1.02 | 0.899 | 0.918 | 0.909 | 0.92 | 0.976 | 0.98 | 1.04 | 1.02 | 0.911 | 0.845 | 0.833 | 0.754 | 0.901 | 0.625
13 | HCC-827 | 0.292 | 0.359 | 0.281 | 0.305 | 0.327 | 0.967 | 1.05 | 1 | 1.08 | 1.07 | 0.581 | 0.76 | 0.487 | 0.552 | 1.02 | 0.959 | 0.965 | 1.03 | 0.926
14 | HOP-62 | 0.213 | 0.185 | 0.207 | 0.246 | 0.268 | 0.805 | 0.632 | 0.783 | 0.742 | 0.505 | 0.84 | 0.857 | 0.884 | 0.747 | 0.901 | 1.14 | 0.983 | 1.04 | 0.783
15 | LC-2-ad | 0.765 | 0.793 | 0.822 | 0.826 | 0.742 | 1 | 1.09 | 1.02 | 1 | 1.01 | 0.8 | 0.987 | 0.98 | 0.869 | 0.42 | 0.489 | 0.452 | 0.49 | 0.438
16 | LCLC-97TM1 | 0.206 | 0.22 | 0.233 | 0.228 | 0.225 | 0.344 | 0.44 | – | 0.572 | 0.343 | 0.651 | 0.752 | 0.565 | 0.561 | 0.428 | 0.65 | 0.495 | 0.271 | 0.191
17 | LCLC-103H | 0.777 | 0.704 | 0.677 | 0.725 | 0.754 | 0.99 | 1.13 | 1.05 | 1.13 | 1.15 | 0.869 | 0.887 | 0.862 | 0.829 | 1.09 | 1.17 | 0.967 | 1.18 | 1.02
18 | LOU-NH91 | 0.821 | 0.763 | 0.785 | 0.802 | 0.788 | 0.428 | 0.496 | 0.449 | 0.515 | 0.443 | 0.322 | 0.371 | 0.347 | 0.313 | 0.718 | 0.772 | 0.792 | 0.667 | 0.704
19 | LU99A | 0.861 | 0.842 | 0.852 | 0.937 | 0.997 | 1.26 | 1.03 | 1.43 | 1.14 | 1 | 0.254 | 0.224 | 0.239 | 0.25 | 0.52 | 0.524 | 0.598 | 0.616 | 0.527
20 | LXF-289 | 0.37 | 0.371 | 0.369 | 0.348 | 0.375 | 0.974 | 0.973 | 1 | 1 | 0.986 | 0.579 | 0.655 | 0.692 | 0.672 | 0.779 | 0.852 | 0.789 | 0.845 | 0.826
21 | NCI-H23 | 0.35 | 0.329 | 0.271 | 0.33 | 0.322 | 0.884 | 1.11 | 1.19 | 1.07 | 0.558 | – | 0.203 | 0.214 | 0.169 | 0.466 | 0.686 | 0.381 | 0.511 | 0.386
22 | NCI-H322M | 0.628 | 0.683 | 0.693 | 0.62 | 0.678 | 1.13 | 1.22 | 1.24 | 1.34 | 1.11 | – | 0.974 | 0.988 | 1.09 | 0.708 | 0.535 | 0.882 | 0.99 | 0.868
23 | NCI-H441 | 0.226 | 0.239 | 0.24 | 0.285 | 0.287 | – | 0.534 | – | 0.757 | 0.441 | – | 0.376 | 0.328 | 0.373 | 0.738 | 0.873 | 0.839 | 0.777 | 0.525
24 | NCI-H460 | 0.488 | 0.442 | 0.489 | 0.453 | 0.401 | – | 0.828 | 1.34 | 1.41 | 0.624 | 0.0274 | 0.0237 | 0.0543 | 0.0362 | – | 1.03 | 0.955 | 1.03 | 0.27
25 | NCI-H520 | 0.449 | 0.428 | 0.306 | 0.341 | 0.335 | 0.496 | 0.494 | 0.903 | 0.506 | 0.492 | – | 0.208 | 0.295 | 0.233 | 0.517 | 1.03 | 0.78 | 0.981 | 0.524
26 | NCI-H596 | 0.987 | 1.16 | 1.14 | 1.08 | 0.963 | 0.715 | 1.63 | 1.2 | 0.926 | 0.933 | 1.12 | 0.83 | 0.881 | 1.1 | 0.96 | 1.02 | 1.08 | 0.97 | 0.834
27 | NCI-H647 | 0.288 | 0.406 | 0.385 | 0.355 | 0.384 | 1.01 | 1.16 | 1.09 | 0.919 | 0.649 | 0.161 | 0.238 | 0.117 | 0.21 | 0.79 | 1.24 | 1.23 | 1.14 | 0.924
28 | NCI-H650 | 0.326 | 0.301 | 0.318 | 0.343 | 0.343 | 0.583 | 0.833 | 0.772 | 0.936 | 0.617 | 0.763 | 0.758 | 0.788 | 0.657 | 0.713 | 1.05 | 0.633 | 0.703 | 0.719
29 | NCI-H661 | 0.537 | 0.529 | 0.56 | 0.564 | 0.505 | 1.05 | 0.71 | 0.697 | 0.678 | 0.718 | 0.743 | 0.886 | 0.881 | 0.685 | – | 1.11 | 0.94 | 1.07 | 0.952
